“Also recorded” adds a separate entry of the source.
Columns and labels:
[1] = test system: L. braziliensis promastigote forms; test: In vitro activity against extracellular (promastigote) forms; format: cell-based, Leishmania braziliensis; settings: for Selectivity Index (SI) L. brazilensis Promastigote forms: IC50 of macrophages / IC50 of parasite form; for IC50: Leishmania braziliensis, 72 h
Excerpt: Methodology: Cultures of three Leishmania species, representative of the species causing each of the clinical forms of the disease, were used for these studies. Specifically, strains MCAN/ES/2001/UCM-1 O of L.infantum, isolated and characterised in Madrid from an infected dog; MHOM/BR/1975/M2904 of L.braziliensis, isolated in Brazil in a human case, and LCR-L 133 LRC of L.donovani. isolated in Jerusalem, Israel from a case of kala-azar […] (WHO Technical Reports Series 949. Geneva: WHO. March. The cultures of parasites come from an own collection which was prepared from a biobank project (Biobank and Characterisation Unit of Strains and Species of Trypanosomatids, Responsible for Human, Animal and Plant Pathologies, Cgl-2008-03687-E/Bos.), and are available on request.
The promastigote forms of the three species studied were cultured in vitro in sterility in single-phase MTL culture medium (Medium Trypanosomes Liquid) made from Hank’s Balanced Salts (Sigma-Aldrich, H6136) enriched with 10% (v/v) of Fetal Bovine Serum (SBF-1) inactivated at 56° C./ 30 minutes. The parasite inoculum to initiate the culture was 5 × 10^4 cells/ml in 5 ml medium in 25 cm^2 Falcon® plastic flasks and kept in an oven at 28° C. The cultures were performed routinely, achieving exponential growth of the flagellates until obtaining the cell mass necessary for the subsequent studies. Both promastigote forms and amastigote forms were used to conduct the assays.
The promastigote forms of the three Leishmania strains, cultured in the manner described above, were harvested in their exponential growth phase by centrifugation at 400 g for 10 min. The number of parasites was counted in a Neubauer Haemocytometer Counting Chamber and were inoculated in a 24-well plate at a concentration of 5 ×10^4 parasites/well.
The compounds to be assayed were dissolved in DMSO at a concentration of 0.01% (v/v), concentration at which this solvent is not toxic nor has any effect on the growth of parasites. The compounds were added to the culture medium at final concentrations of 100, 50, 25 and 12.5 µM. […] M. et al. Med. Chem. 2011. 54. 970-979].

J774.2 macrophages = test: Macrophage toxicity by flow cytometry; format: cell-based; settings: for IC50: J774.2 macrophages, 72 h of culture
Method: Macrophage toxicity: this study used the experimental model designed by the group of inventors [I. Ramírez-Macías. et. al. J. Antimicrob. Chemother. 2011, 66(4): 813-819] wherein flow cytometry is used. Briefly, macrophages from line J774.2 (ECACC number 91051511, obtained from a BALB/c female […] tumour in 1968) were deposited in a steriling tube and centrifuged at 120 g for 5 minutes. The supernatant was discarded and the cells were resuspended in MEM + Glutamine medium with 20% SBF (fetal bovine serum). 1×10^4 cells per well were then deposited from a 24-well titration plate and incubated for 24-48 h at 37° C. in a humid atmosphere enriched with 5% CO2 to fix them. […] After 72 h of incubation, the samples were prepared for reading on a flow cytometer. Specifically, 100 µl of propidium iodide solution (100 µg/ml) was added to each well and incubated for 10 min at 28° C. in the dark. Subsequently, 100 µl/well of fluorescein diacetate (FDA) (Sigma Chemical Co) in solution (100 ng/mL) was added and incubation was repeated under the same conditions for 10 minutes. Cells were recovered by centrifugation at 400 g for 10 minutes and washing the precipitate with PBS. Finally, the results were analysed in a FACS Vantage flow cytometer (Becton Dickinson) taking into account that the cells with the plasma membrane intact emit green colour as the esterases act on the FDA, while the cells that have lost the integrity of the membrane and are not viable, emit in the range close to 580 nm by penetrating the propidium iodide by passive diffusion and specifically binding to the nucleic acids thereof. Thus, to calculate the percentage of viability, the number of dead cells compared to controls was taken into account.

[2] = test system: FeSOD of promastigote forms of L.infantum; test: In vitro inhibition of FeSOD (NBT reduction); format: biochemical, Leishmania infantum
Method: Methodology: Compounds that were selected from the leishmanicidal activity shown in previous experiments were evaluated as inhibitors of FeSOD enzyme activity, which is unique to the kinetoplastid parasites to which Leishmania belongs. Being exclusive, it is absent in the vertebrate host, since these usually have an analogous form of that enzyme, but complexed to a copper or zinc atom (Cu/ZnSOD). For this reason, this enzyme is a therapeutic target for the design of new drugs, since the capture of the metal ion by complexing mechanisms can inactivate the enzyme and compromise the survival of the parasite with the appearance of free radicals.
Inhibition caused by the novel compounds on FeSOD/ Cu-Zn SOD activity was quantified on the spectrophotometer at 560 nm according to the technique described by [W F. Beyer. I. Fridovich. Anal Biochem. 1987. 161: 559-66] based on the determination of the reduction of NBT (nitro blue tetrazolium) by superoxide ions and which the group of the present inventors has developed for the assay in trypanosomatides, being a routine technique in the laboratory of said group [F. Luque. et. al. Comp. Biochem. Physiol. C Toxicol. Pharmacol. 2000. 126: 39-44; M. Sanchez-Moreno. Med. Chem. 2011. 54. 970-9; I. Ramírez-Macías. et. al. J. Antimicrob. Chemother 2011. 66(4): […]].
Briefly, the cultured parasites as described in Example 1 underwent centrifugation, the pellet was resuspended (0.5 - 0.6 g/ml) in 3 ml of STE buffer ([…]. pH 7.8) and underwent 3 cycles of sonication from 30 s at 60 V. Then, it was centrifuged at 1500 g for 10 min at 4° C. and the pellet was washed 3 times with ice-cooled STE buffer. This fraction was centrifuged (2500 g for 10 min at 4° C.) and the supernatant was subsequently collected. Protein concentrations were determined by means of the Bradford method (Sigma-Aldrich) using bovine serum albumin as standard. […] A first measurement of the absorbance at 560 nm was made on a spectrophotometer and, after 10 minutes under light and under stirring conditions, the absorbance was re-determined. […]

| Compound | Selectivity Index (SI) L. brazilensis Promastigote forms [1] | IC50 [1] | IC50 (J774.2 macrophages) | Concentration for 50% inhibition (IC50) of FeSOD of L.infantum [2] | Toxicity in macrophages (IC50) compared with the reference compound (J774.2 macrophages) |
| --- | --- | --- | --- | --- | --- |
| CN(C)CCNCc1ccncc1 [Compound 6] | 9 | 52.5 ± 5.1 µM | 497 ± 21.5 µM | – | – |
| CNCCNCc1cccnc1 [Compound 2, 1-{3-pyridyl)-2,5-diazahexane] | 76 | 4.1 ± 0.2 µM | 310 ± 11.5 µM | less than that necessary to achieve the same percentage of inhibition of the CuZnSOD enzyme of human erythrocytes; also recorded: showed ability to inhibit FeSOD; also recorded: low IC50 value | low toxicities |
| CNCCNCc1ccncc1 [Compound 3, 1-{4-pyridyl)-2,5-diazahexane] | 16 | 14.3 ± 1 µM | 223 ± 17.3 µM | – | – |
| CN(C)CCNCc1ccccn1 [Compound 4, 1-(2-pyridyl)-5-methyl-2,5-diazahexane] | 33 | 37.3 ± 0.9 µM | 1240 ± 42.7 µM | less than that necessary to achieve the same percentage of inhibition of the CuZnSOD enzyme of human erythrocytes; also recorded: showed ability to inhibit FeSOD | – |
| CN(C)CCNCc1ccc2ccccc2n1 [Compound 7] | 4 | 105 ± 11.6 µM | 442 ± 31.6 µM | – | – |
| CNCCNCc1ccccn1 [Compound 1, 1-{2-pyridyl}-2,5-diazahexane] | 2 | 7.4 ± 0.6 µM | 13.7 ± 3.1 µM | – | – |
| CN(C)CCNCc1ccnc2ccccc12 [Compound 8, 1-{4-quinolyl)-5-methyl-2,5-diazahexane] | 2 | 13.8 ± 0.7 µM | 22.5 ± 0.6 µM | – | – |
| CN(C)CCNCc1cccnc1 [Compound 5, 1-{3-pyridyl}-5-methyl-2,5-diazahexane] | 14 | 16.7 ± 0.5 µM | 230 ± 16.9 µM | less than that necessary to achieve the same percentage of inhibition of the CuZnSOD enzyme of human erythrocytes; also recorded: showed ability to inhibit FeSOD | much lower |
| CNCCNCc1ccnc2ccccc12 [Compound 10] | 9 | 18.4 ± 1.1 µM | 164 ± 10 µM | – | – |
| CNCCNCc1ccc2ccccc2n1 [Compound 9, 1-{2-quinolyl)-2,5-diazahexane] | 13 | 28 ± 0.3 µM | 354 ± 31.7 µM | – | – |

— patent US20230346769A1, “USE OF SIMPLE ACYCLIC POLYAMINES FOR THE TREATMENT OF DISEASES CAUSED BY PARASITES OF THE GENUS LEISHMANIA” (Universidad De Granada, priority 2020, published 2023)
